In paper PMC8286840, “Identifying SARS-CoV-2 antiviral compounds by screening for small molecule inhibitors of Nsp3 papain-like protease” (Biochemical Journal, 2021):
Where a name gives a salt, the structure may show the parent alone. Read-outs that look alike come from different tables or passages of the source.

Experiments:
[1] = target: T1, SARS-CoV-2 PLpro (nsp3 1564–1878) (Severe acute respiratory syndrome coronavirus 2, UniProt P0DTD1); test: biochemical; parameters: FRET-quenched peptide (Pro3) cleavage by PLpro, 10 min pre-incubation, slope over 20 min, normalised to no-compound control; settings: low concentration screen, read-out: % of control remaining
[2] = target: T1, SARS-CoV-2 PLpro (nsp3 1564–1878); test: biochemical; parameters: FRET-quenched peptide (Pro3) cleavage by PLpro, 10 min pre-incubation, slope over 20 min, normalised to no-compound control; settings: high concentration screen, read-out: % of control remaining

SMILES: CC/C=C\C/C=C\C/C=C\C/C=C\C/C=C\CCCC(=O)O [Eicosapentaenoic acid]
- remaining activity at 1.25 µM ([1]; Well no.=4251): 103%
- remaining activity at 1.25 µM ([1]; Well no.=4448): 92.3%
- remaining activity at 1.25 µM ([1]; Well no.=7315): 108%
- remaining activity at 3.75 µM ([2]; Well no.=4251): 101%
- remaining activity at 3.75 µM ([2]; Well no.=4448): 96.1%
- remaining activity at 3.75 µM ([2]; Well no.=7315): 103%

SMILES: CCC1(c2cccc(O)c2)CCCCN(C)C1 (stereo not drawn) [Meptazinol HCl]
- remaining activity at 1.25 µM ([1]; Well no.=4636): 93.5%
- remaining activity at 3.75 µM ([2]; Well no.=4636): 90.6%

SMILES: CCCCc1ccc(NC(C)=O)c(C)c1 [SMIP004]
- remaining activity at 1.25 µM ([1]; Well no.=6972): 101%
- remaining activity at 3.75 µM ([2]; Well no.=6972): 98.7%

SMILES: C[N+](C)(C)CCO [2-hydroxy-N,N,N-trimethylethanaminium chloride]
- remaining activity at 1.25 µM ([1]; Well no.=5483): 98.3%
- remaining activity at 3.75 µM ([2]; Well no.=5483): 97.8%

SMILES: Clc1cccc(COc2cncc(N3CCNCC3)n2)c1 [CP-809101 (hydrochloride)]
- remaining activity at 1.25 µM ([1]; Well no.=7851): 95.1%
- remaining activity at 3.75 µM ([2]; Well no.=7851): 83.3%

SMILES: COc1ccc2c(c1OC)C(=O)O[C@@H]2[C@H]1c2c(cc3c(c2OC)OCO3)CCN1C [Noscapine hydrchloride]
- remaining activity at 1.25 µM ([1]; Well no.=957): 93%
- remaining activity at 3.75 µM ([2]; Well no.=957): 95.4%

SMILES: Cc1c(-c2ccc(O)cc2)n(Cc2ccc(OCCN3CCCCCC3)cc2)c2ccc(O)cc12 [Bazedoxifene HCl]
- remaining activity at 1.25 µM ([1]; Well no.=5100): 105%
- remaining activity at 3.75 µM ([2]; Well no.=5100): 105%

SMILES: O=C(Nc1cccc(Nc2nccc(Nc3cccc(C(F)(F)F)c3)n2)c1)C1CC1 [Aurora Kinase Inhibitor III]
- remaining activity at 1.25 µM ([1]; Well no.=2326): 105%
- remaining activity at 1.25 µM ([1]; Well no.=2659): 95.7%
- remaining activity at 3.75 µM ([2]; Well no.=2326): 102%
- remaining activity at 3.75 µM ([2]; Well no.=2659): 94%

SMILES: CC1=C(/C=C/C(C)=C\C=C\C(C)=C\C(=O)O)C(C)(C)CCC1 [9-cis Retinoic acid]
- remaining activity at 1.25 µM ([1]; Well no.=3136): 98.3%
- remaining activity at 1.25 µM ([1]; Well no.=4428): 103%
- remaining activity at 3.75 µM ([2]; Well no.=3136): 95.8%
- remaining activity at 3.75 µM ([2]; Well no.=4428): 102%

SMILES: CC(=O)c1c(C)c2cnc(Nc3ccc(N4CCNCC4)cn3)nc2n(C2CCCC2)c1=O [PD 0332991 (Palbociclib) HCl]
- remaining activity at 1.25 µM ([1]; Well no.=4667): 99%
- remaining activity at 3.75 µM ([2]; Well no.=4667): 98%

SMILES: CCN1CCC[C@H]1CNC(=O)c1c(OC)ccc(I)c1O [S(-)-IBZM]
- remaining activity at 1.25 µM ([1]; Well no.=875): 98.1%
- remaining activity at 3.75 µM ([2]; Well no.=875): 99.1%

SMILES: NS(=O)(=O)c1cc2c(cc1Cl)N=CNS2(=O)=O [Chlorothiazide]
- remaining activity at 1.25 µM ([1]; Well no.=82): 99.4%
- remaining activity at 1.25 µM ([1]; Well no.=7460): 96%
- remaining activity at 3.75 µM ([2]; Well no.=82): 100%
- remaining activity at 3.75 µM ([2]; Well no.=7460): 102%

SMILES: O=C(CCCN1CCC2(CC1)C(=O)NCN2c1ccccc1)c1ccc(F)cc1 [Spiperone hydrochloride]
- remaining activity at 1.25 µM ([1]; Well no.=1268): 105%
- remaining activity at 3.75 µM ([2]; Well no.=1268): 105%

SMILES: CCCCCOC(=O)Nc1nc(=O)n([C@@H]2O[C@H](C)[C@@H](O)[C@H]2O)cc1F [Capecitabine]
- remaining activity at 1.25 µM ([1]; Well no.=2290): 96.5%
- remaining activity at 3.75 µM ([2]; Well no.=2290): 96.5%

SMILES: OC[C@H]1O[C@@H](n2cnc3c(N[C@@H]4C[C@H]5CC[C@H]4C5)ncnc32)[C@H](O)[C@@H]1O [(S)-ENBA]
- remaining activity at 1.25 µM ([1]; Well no.=465): 102%
- remaining activity at 3.75 µM ([2]; Well no.=465): 105%

SMILES: COc1ccc(F)c(F)c1C(=O)c1cnc(NC2CCN(S(C)(=O)=O)CC2)nc1N [R547]
- remaining activity at 1.25 µM ([1]; Well no.=4653): 94.4%
- remaining activity at 3.75 µM ([2]; Well no.=4653): 93.6%

SMILES: CCCc1nn(C)c2c(=O)[nH]c(-c3cc(S(=O)(=O)N4CCN(C)CC4)ccc3OCC)nc12 [Sildenafil]
- remaining activity at 1.25 µM ([1]; Well no.=1836): 99.2%
- remaining activity at 3.75 µM ([2]; Well no.=1836): 96.8%

SMILES: CC(C)NCC(O)COc1ccc(CCOCC2CC2)cc1 (stereo not drawn) [Betaxolol hydrochloride]
- remaining activity at 1.25 µM ([1]; Well no.=175): 102%
- remaining activity at 3.75 µM ([2]; Well no.=175): 101%

SMILES: O=C(Nc1nc2ccc(NC(=O)C34C[C@H]5C[C@@H](C3)C[C@@H](C4)C5)cc2s1)c1ccccc1 [NVP-231]
- remaining activity at 1.25 µM ([1]; Well no.=5410): 95.2%
- remaining activity at 3.75 µM ([2]; Well no.=5410): 86.5%

SMILES: O=C(Oc1ccc([N+](=O)[O-])cc1)N1CCC(C(O)(c2ccc3c(c2)OCO3)c2ccc3c(c2)OCO3)CC1 [JZL184]
- remaining activity at 1.25 µM ([1]; Well no.=8838): 92.7%
- remaining activity at 3.75 µM ([2]; Well no.=8838): 91.1%

SMILES: CCCCCCCCCCCCC(=O)O [Tridecanoic acid]
- remaining activity at 1.25 µM ([1]; Well no.=4260): 106%
- remaining activity at 3.75 µM ([2]; Well no.=4260): 98%

SMILES: Nc1nc2c(ncn2[C@@H]2O[C@@H]3COP(=O)(O)O[C@H]4[C@@H](O)[C@H](n5cnc6c(=O)[nH]c(N)nc65)O[C@@H]4COP(=O)(O)O[C@H]3[C@H]2O)c(=O)[nH]1 [Cyclic-di-GMP]
- remaining activity at 1.25 µM ([1]; Well no.=7774): 103%
- remaining activity at 1.25 µM ([1]; Well no.=8405): 101%
- remaining activity at 3.75 µM ([2]; Well no.=7774): 102%
- remaining activity at 3.75 µM ([2]; Well no.=8405): 100%

SMILES: CC(C)C[C@H](CO)Nc1nc(S[C@@H](C)c2ccccc2)nc2nc(N)sc12 [AZD8797]
- remaining activity at 1.25 µM ([1]; Well no.=8313): 103%
- remaining activity at 3.75 µM ([2]; Well no.=8313): 103%

SMILES: NS(=O)(=O)c1cc2c(cc1Cl)NCNS2(=O)=O [Hydrochlorothiazide]
- remaining activity at 1.25 µM ([1]; Well no.=658): 100%
- remaining activity at 3.75 µM ([2]; Well no.=658): 98.6%

SMILES: CCCN(CCc1cccs1)[C@H]1CCc2c(O)cccc2C1 [Rotigotine]
- remaining activity at 1.25 µM ([1]; Well no.=8349): 92.3%
- remaining activity at 3.75 µM ([2]; Well no.=8349): 88.8%

SMILES: CCO[C@@H]1OC(=O)C[C@@H]1NC(=O)[C@@H]1CCCN1C(=O)[C@@H](NC(=O)c1ccc(N)c(Cl)c1)C(C)(C)C [Belnacasan]
- remaining activity at 1.25 µM ([1]; Well no.=6502): 98%
- remaining activity at 1.25 µM ([1]; Well no.=8460): 103%
- remaining activity at 3.75 µM ([2]; Well no.=6502): 98.4%
- remaining activity at 3.75 µM ([2]; Well no.=8460): 110%

SMILES: NC(=O)c1cccc(N)c1 [3-aminobenzamide]
- remaining activity at 1.25 µM ([1]; Well no.=199): 101%
- remaining activity at 3.75 µM ([2]; Well no.=199): 98.8%

SMILES: CNCC(O)c1ccc(O)cc1 (racemic)
- remaining activity at 1.25 µM ([1]; Well no.=1356): 102%
- remaining activity at 3.75 µM ([2]; Well no.=1356): 104%

SMILES: c1ccc([C@@H]2CCC[C@@H]2NC2=NCCCCCCCCCCC2)cc1 [MDL 12,330A hydrochloride]
- remaining activity at 1.25 µM ([1]; Well no.=993): 103%
- remaining activity at 3.75 µM ([2]; Well no.=993): 101%

SMILES: CCc1ccc(OCc2ccccc2C(=O)Nc2ccc3nc(C)cc(N)c3c2)cc1 [JTC-801]
- remaining activity at 1.25 µM ([1]; Well no.=5025): 98.2%
- remaining activity at 1.25 µM ([1]; Well no.=7002): 95.7%
- remaining activity at 3.75 µM ([2]; Well no.=5025): 98.7%
- remaining activity at 3.75 µM ([2]; Well no.=7002): 91.5%

SMILES: NC(=O)c1cccc(NC(=O)/C=C/c2c[nH]c3ccccc23)c1 [(E)-3-(3-(1H-indol-3-yl)acrylamido)benzamide]
- remaining activity at 1.25 µM ([1]; Well no.=5576): 93.5%
- remaining activity at 3.75 µM ([2]; Well no.=5576): 93.4%
